Test results from ChEMBL document CHEMBL1201862, “PubChem BioAssay data set” (2004).
Activity calls are given as the source filed them.

Legend:
[1] = inhibitors of intracellular T. cruzi replication, confirmation, NIH3T3 host cells, beta-gal luminescence (AID 2044); assay type: functional, cell-based;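 further: intracellular parasites grown in NIH/3T3 mouse fibroblasts as host cells; luminescent beta-galactosidase reporter signal from transgenic T. cruzi replicating inside host cells; inhibitors lower the luminescence signal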
[2] = cytotoxicity toward NIH3T3 fibroblasts, dose response, counter-screen, cell-based, ATP luminescence, mouse fibroblasts (AID 2010); assay type: functional;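 further: cells exposed to compound for about 90 hours before reading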
[3] = biological target: T1, Replicative DNA helicase DnaB (Mycobacterium tuberculosis, UniProt P9WMR3); assay: DnaB intein splicing inhibitors, dose response, biochemical, cell-free fluorescence (AID 449749); assay type: functional
T1 sequence (P9WMR3 whole entry): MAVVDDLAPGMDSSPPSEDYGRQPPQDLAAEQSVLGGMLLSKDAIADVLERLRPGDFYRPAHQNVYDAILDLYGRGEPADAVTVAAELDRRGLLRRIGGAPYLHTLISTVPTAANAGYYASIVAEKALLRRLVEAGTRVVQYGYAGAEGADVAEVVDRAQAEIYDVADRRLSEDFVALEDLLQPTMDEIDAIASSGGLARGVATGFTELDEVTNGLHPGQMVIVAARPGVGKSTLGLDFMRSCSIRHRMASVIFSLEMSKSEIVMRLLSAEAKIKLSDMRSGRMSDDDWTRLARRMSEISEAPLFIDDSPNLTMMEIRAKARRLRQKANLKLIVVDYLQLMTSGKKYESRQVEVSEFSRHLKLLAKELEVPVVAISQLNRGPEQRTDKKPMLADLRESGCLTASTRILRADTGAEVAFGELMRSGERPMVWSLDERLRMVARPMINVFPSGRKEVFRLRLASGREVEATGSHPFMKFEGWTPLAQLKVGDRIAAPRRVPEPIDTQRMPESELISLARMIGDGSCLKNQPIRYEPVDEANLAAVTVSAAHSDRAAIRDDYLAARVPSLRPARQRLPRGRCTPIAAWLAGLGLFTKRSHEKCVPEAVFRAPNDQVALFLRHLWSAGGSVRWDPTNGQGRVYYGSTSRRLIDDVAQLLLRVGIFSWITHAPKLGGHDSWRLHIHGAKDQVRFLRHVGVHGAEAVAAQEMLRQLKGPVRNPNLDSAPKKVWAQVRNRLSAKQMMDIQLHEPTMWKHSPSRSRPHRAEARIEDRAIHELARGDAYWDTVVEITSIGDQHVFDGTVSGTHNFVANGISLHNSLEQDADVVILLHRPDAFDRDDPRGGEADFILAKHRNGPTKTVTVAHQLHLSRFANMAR

[4] = biological target: G-protein coupled receptor 55 (Homo sapiens, UniProt Q9Y2T6); assay: GPR55 antagonists blocking LPI-driven arrestin recruitment, primary screen, imaging, U2OS, beta-arrestin-GFP, LPI agonist (AID 2013); assay type: functional;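 further: antagonist potency measured as reduced agonist-driven arrestin aggregation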
[5] = biological target: T2, Histone-lysine N-methyltransferase NSD2 (Homo sapiens, UniProt O96028); assay type: biochemical
T2 sequence (O96028 whole entry): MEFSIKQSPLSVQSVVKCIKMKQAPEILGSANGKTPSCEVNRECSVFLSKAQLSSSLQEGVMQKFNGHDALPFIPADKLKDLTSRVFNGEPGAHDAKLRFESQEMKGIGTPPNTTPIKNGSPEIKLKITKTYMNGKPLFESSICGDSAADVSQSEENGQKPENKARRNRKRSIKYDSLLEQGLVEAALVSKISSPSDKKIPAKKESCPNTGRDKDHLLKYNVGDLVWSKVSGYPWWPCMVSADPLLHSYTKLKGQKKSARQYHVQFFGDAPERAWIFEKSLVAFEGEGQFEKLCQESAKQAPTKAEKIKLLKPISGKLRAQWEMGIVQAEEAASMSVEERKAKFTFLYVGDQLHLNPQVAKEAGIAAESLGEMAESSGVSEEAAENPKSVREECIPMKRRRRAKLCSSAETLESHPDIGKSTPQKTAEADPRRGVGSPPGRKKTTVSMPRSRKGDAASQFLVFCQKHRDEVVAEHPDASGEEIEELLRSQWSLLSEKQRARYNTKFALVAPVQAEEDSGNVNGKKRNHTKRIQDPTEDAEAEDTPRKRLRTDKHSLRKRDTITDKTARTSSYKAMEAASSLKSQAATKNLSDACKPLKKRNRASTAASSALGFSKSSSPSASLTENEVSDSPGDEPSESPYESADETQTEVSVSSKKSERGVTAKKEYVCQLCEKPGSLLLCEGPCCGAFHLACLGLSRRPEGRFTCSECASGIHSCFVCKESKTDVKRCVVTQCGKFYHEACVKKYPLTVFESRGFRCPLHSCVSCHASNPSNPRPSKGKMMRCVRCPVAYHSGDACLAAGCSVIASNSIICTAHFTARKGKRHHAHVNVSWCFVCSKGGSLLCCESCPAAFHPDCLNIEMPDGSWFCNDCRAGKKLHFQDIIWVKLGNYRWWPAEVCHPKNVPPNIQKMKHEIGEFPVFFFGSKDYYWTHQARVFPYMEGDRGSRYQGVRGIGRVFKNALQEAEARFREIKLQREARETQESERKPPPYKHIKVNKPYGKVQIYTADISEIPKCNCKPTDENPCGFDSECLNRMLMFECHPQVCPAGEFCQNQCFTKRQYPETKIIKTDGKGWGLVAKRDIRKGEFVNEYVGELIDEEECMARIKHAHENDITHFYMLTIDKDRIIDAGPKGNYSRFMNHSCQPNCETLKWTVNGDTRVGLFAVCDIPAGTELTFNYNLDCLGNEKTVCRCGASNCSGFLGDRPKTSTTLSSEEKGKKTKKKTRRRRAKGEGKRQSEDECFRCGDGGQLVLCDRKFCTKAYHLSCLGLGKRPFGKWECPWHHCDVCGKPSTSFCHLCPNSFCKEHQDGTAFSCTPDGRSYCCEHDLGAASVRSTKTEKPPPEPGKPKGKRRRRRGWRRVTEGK

[6] = biological target: Induced myeloid leukemia cell differentiation protein Mcl-1 (Homo sapiens, UniProt Q07820); assay type: functional
[7] = biological target: T3, Zinc finger protein mex-5 (Caenorhabditis elegans, UniProt Q9XUB2); assay: MEX-5/TCR-2 RNA interaction inhibitors, dose response, biochemical, C. elegans, fluorescence polarization (AID 1960)
T3 sequence (Q9XUB2 whole entry): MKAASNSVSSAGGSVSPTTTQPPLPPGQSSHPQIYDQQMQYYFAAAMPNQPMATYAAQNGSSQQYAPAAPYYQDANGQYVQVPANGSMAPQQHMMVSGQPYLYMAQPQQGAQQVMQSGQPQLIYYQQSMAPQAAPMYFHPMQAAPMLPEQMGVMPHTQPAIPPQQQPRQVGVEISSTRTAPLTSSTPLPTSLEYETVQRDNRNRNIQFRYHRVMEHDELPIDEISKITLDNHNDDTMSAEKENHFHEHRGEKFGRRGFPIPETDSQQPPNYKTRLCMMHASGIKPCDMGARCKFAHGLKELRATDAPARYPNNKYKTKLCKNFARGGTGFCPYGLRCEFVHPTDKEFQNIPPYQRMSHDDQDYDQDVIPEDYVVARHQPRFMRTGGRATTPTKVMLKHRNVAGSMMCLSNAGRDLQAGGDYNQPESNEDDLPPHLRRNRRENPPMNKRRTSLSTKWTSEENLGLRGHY

Induced myeloid leukemia cell differentiation protein Mcl-1, sequence (Q07820 whole entry): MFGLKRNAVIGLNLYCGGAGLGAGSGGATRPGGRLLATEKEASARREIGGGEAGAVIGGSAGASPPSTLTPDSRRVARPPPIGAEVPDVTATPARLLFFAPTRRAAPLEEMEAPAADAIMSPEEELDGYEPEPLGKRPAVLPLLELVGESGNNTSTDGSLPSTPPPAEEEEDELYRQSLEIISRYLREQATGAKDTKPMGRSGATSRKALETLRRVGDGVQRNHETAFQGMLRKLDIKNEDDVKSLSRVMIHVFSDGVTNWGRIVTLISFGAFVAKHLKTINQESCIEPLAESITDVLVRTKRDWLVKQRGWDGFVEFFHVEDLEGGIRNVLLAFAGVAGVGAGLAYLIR
G-protein coupled receptor 55, sequence (Q9Y2T6 whole entry): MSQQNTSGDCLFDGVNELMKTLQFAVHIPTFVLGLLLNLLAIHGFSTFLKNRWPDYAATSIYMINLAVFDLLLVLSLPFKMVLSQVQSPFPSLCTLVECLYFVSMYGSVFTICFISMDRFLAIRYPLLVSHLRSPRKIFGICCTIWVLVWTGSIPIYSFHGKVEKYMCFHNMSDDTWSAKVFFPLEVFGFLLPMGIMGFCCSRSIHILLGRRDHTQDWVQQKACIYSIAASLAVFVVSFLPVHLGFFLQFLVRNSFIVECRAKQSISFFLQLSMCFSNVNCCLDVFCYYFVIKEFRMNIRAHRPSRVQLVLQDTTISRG

Cc1ccc(NC2=C/C(=N\S(=O)(=O)c3cccs3)c3ccccc3C2=O)c(C)c1
EC50 [1]: 719 nM (active) | EC50 [2]: < 6000 nM (inconclusive) | AC50 [3]: 339 nM (active) | IC50 [4]: 1870 nM (active)

COc1ccc(/C=N/NC(=O)c2nn(-c3ccccc3)c(=O)c3c(N)scc23)cc1
AC50 [5]: > 20000 nM (inactive)

Oc1ccc(-c2cn3c(n2)SCC3)cc1O
IC50 [6]: 2260 nM (active) | AC50 [5]: 2950 nM (active) | EC50 [7]: 1770 nM (active)

CC(=O)N(C1=C(Cl)C(=O)c2ccccc2C1=O)C1CCCCC1
EC50 [1]: 1830 nM (active) | IC50 [6]: 14500 nM (active) | EC50 [2]: 3260 nM (active) | EC50 [7]: 8180 nM (active) | AC50 [3]: 2980 nM (active) | IC50 [4]: 4550 nM (active)
